Results as given in BigSolDB 2.1.

O=C(O)CCP(=O)(O)c1ccccc1
Conditions | solubility (mole fraction)
in 2-butanone, 293.16 K | 0.00061
in 2-butanone, 298.17 K | 0.00077
in 2-butanone, 303.18 K | 0.00103
in 2-butanone, 308.14 K | 0.00127
in 2-butanone, 313.16 K | 0.00163
in 2-butanone, 318.17 K | 0.00206
in 2-butanone, 323.16 K | 0.00253
in 2-butanone, 328.16 K | 0.00316
in 2-butanone, 333.15 K | 0.00395
in 2-ethoxyethanol, 293.16 K | 0.0461
in 2-ethoxyethanol, 298.17 K | 0.0512
in 2-ethoxyethanol, 303.18 K | 0.0571
in 2-ethoxyethanol, 308.14 K | 0.0638
in 2-ethoxyethanol, 313.16 K | 0.0709
in 2-ethoxyethanol, 318.17 K | 0.0777
in 2-ethoxyethanol, 323.16 K | 0.0849
in 2-ethoxyethanol, 328.16 K | 0.0937
in 2-ethoxyethanol, 333.15 K | 0.102
in acetic acid, 293.16 K | 0.0105
in acetic acid, 298.17 K | 0.0116
in acetic acid, 303.18 K | 0.013
in acetic acid, 308.14 K | 0.0147
in acetic acid, 313.16 K | 0.0164
in acetic acid, 318.17 K | 0.0182
in acetic acid, 323.16 K | 0.0205
in acetic acid, 328.16 K | 0.0225
in acetic acid, 333.15 K | 0.0249
in acetone, 293.16 K | 0.00074
in acetone, 298.17 K | 0.00093
in acetone, 303.18 K | 0.00124
in acetone, 308.14 K | 0.00153
in acetone, 313.16 K | 0.00197
in acetone, 318.17 K | 0.00248
in acetone, 323.16 K | 0.00305
in acetonitrile, 293.16 K | 6e-05
in acetonitrile, 298.17 K | 0.0001
in acetonitrile, 303.18 K | 0.00015
in acetonitrile, 308.14 K | 0.00023
in acetonitrile, 313.16 K | 0.00035
in acetonitrile, 318.17 K | 0.00053
in acetonitrile, 323.16 K | 0.00078
in acetonitrile, 328.16 K | 0.00109
in acetonitrile, 333.15 K | 0.00161
in benzene, 293.16 K | 0.00081
in benzene, 298.17 K | 0.00091
in benzene, 303.18 K | 0.00099
in benzene, 308.14 K | 0.00107
in benzene, 313.16 K | 0.00114
in benzene, 318.17 K | 0.00126
in benzene, 323.16 K | 0.00134
in benzene, 328.16 K | 0.00145
in benzene, 333.15 K | 0.00156
in chloroform, 288.15 K | 0.00021
in chloroform, 293.16 K | 0.00026
in chloroform, 298.17 K | 0.00033
in chloroform, 303.18 K | 0.00041
in chloroform, 308.14 K | 0.00052
in chloroform, 313.16 K | 0.00063
in chloroform, 318.17 K | 0.00079
in chloroform, 323.16 K | 0.00093
in chloroform, 328.16 K | 0.00112
in chloroform, 333.15 K | 0.00133
in cyclohexane, 293.16 K | 0.00088
in cyclohexane, 298.17 K | 0.00108
in cyclohexane, 303.18 K | 0.00128
in cyclohexane, 308.14 K | 0.00157
in cyclohexane, 313.16 K | 0.00186
in cyclohexane, 318.17 K | 0.00222
in cyclohexane, 323.16 K | 0.00263
in cyclohexane, 328.16 K | 0.00314
in cyclohexane, 333.15 K | 0.00371
in dichloromethane, 288.15 K | 0.00029
in dichloromethane, 293.16 K | 0.00042
in dichloromethane, 298.17 K | 0.00059
in dichloromethane, 303.18 K | 0.0008
in dichloromethane, 308.14 K | 0.00111
in dichloromethane, 313.16 K | 0.00149
in ethyl acetate, 293.16 K | 0.00128
in ethyl acetate, 298.17 K | 0.00148
in ethyl acetate, 303.18 K | 0.00162
in ethyl acetate, 308.14 K | 0.00182
in ethyl acetate, 313.16 K | 0.00202
in ethyl acetate, 318.17 K | 0.00226
in ethyl acetate, 323.16 K | 0.00254
in ethyl acetate, 328.16 K | 0.00281
in ethyl acetate, 333.15 K | 0.00311
in toluene, 293.16 K | 0.00051
in toluene, 298.17 K | 0.00059
in toluene, 303.18 K | 0.00068
in toluene, 308.14 K | 0.00079
in toluene, 313.16 K | 0.00092
in toluene, 318.17 K | 0.00105
in toluene, 323.16 K | 0.00119
in toluene, 328.16 K | 0.00138
in toluene, 333.15 K | 0.00154
in water, 298.25 K | 0.00178
in water, 308.66 K | 0.00366
in water, 318.07 K | 0.00671
in water, 327.17 K | 0.0133
in water, 337.55 K | 0.0249
in water, 342.75 K | 0.0339
in water, 345.06 K | 0.0412
in water, 349.47 K | 0.0568
